Literature values in patent EP2090292A1, “Means and methods for controlling commensales” (B.R.A.I.N. Biotechnology Research and Information Network AG, priority 2008, dated 2009).
Entries after “also recorded” stand apart in the source; their conditions may differ.

Test system: Gram-positive and Gram-negative bacteria
Settings: prior art, Torres et al. (1998); biofilm not assayed

With `CC1OC(=O)C(C2OC2C)=CC1O` (stereo not shown) [aspyrone, 6-Dihydro-5-hydroxy-6-methyl-3-(3-methyloxiranyl)-2H-pyran-2-one] as the compound, how does the “inhibitory activity against Gram-positive and Gram-negative bacteria” value read?
Its value is “weak inhibitory activity; also recorded: weak to negligible activity”.
